# Assay results published in patent US20260294905A1, “USE OF PLURALITY OF COMPOUNDS IN PREPARATION OF DRUG FOR TREATING MYELOPROLIFERATIVE NEOPLASMS” (THE SECOND XIANGYA HOSPITAL OF CENTRAL SOUTH UNIVERSITY, priority 2022, published 2026).
# Several values for one entry are separate records, joined by “and”; a condition that tells them apart may be missing. Equal values may be shown once. Entries after “also recorded” stand apart in the source; their conditions may differ.
# How the values were obtained:
# [1] = system: HEL cells (human erythroleukemia cell line); experiment: Annexin V-PI staining and flow cytometry, apoptosis of HEL cells, 24 h; format: cell-based
# Procedure: • 1. the cell lines and inhibitors were the same as those in Example 1. • 2. detection of cell apoptosis
# (§1) To detect the apoptosis-promoting effect of the inhibitors, HEL naïve cell strains were treated with Ruxolitinib and the compounds for 24 hours respectively (with concentrations of: 0, 0.1, 0.5, 1 μM or 0, 0.1, 0.3, 1, 3, 10 μM), and added with DMSO to make up to the same amount. 3 parallel replicate groups were set up, and cell apoptosis was detected by Annexin V and PI staining followed by flow cytometry.
# (§2) A calculation formula of cell apoptosis rate was: cell apoptosis rate=the ratio of early apoptotic cells (Annexin V^+/PI^−)+the ratio of late apoptotic cells and necrotic cells (Annexin V^+/PI^+).
# [2] = system: HEL^RE cells (Ruxolitinib-resistant HEL); experiment: Annexin V-PI staining and flow cytometry, apoptosis of HEL^RE cells; format: cell-based, human; conditions: for average apoptosis rate of HEL-RE cells: 24 h
# Procedure: as §1, §2
# In order to detect the effects of compounds on the abilities of drug-resistant myeloproliferative neoplasm cells, the method was to treat HEL^RE with increasing concentrations of Ruxolitinib and the compounds, and to detect cell apoptosis by Annexin V and PI staining followed by flow cytometry.
# [3] = system: HEL^RE cells (Ruxolitinib-resistant HEL); experiment: CellTiter-Lumi luminescence proliferation of Ruxolitinib-resistant HEL^RE cells, 48 h; format: cell-based, human; conditions: HEL^RE cells
# Source text: (§3) HELs (Human erythroleukemia cell lines) and Ruxolitinib-resistant HEL cells were both cultured in a RPMI medium (Gibco) containing 20% heat-inactivated fetal bovine serum (Gibco) and 1% penicillin/streptomycin.
# A Ruxolitinib-resistant HEL model, i.e., a HEL^RE model, was constructed by starting the addition of Ruxolitinib at a concentration lower than the IC50 of naïve cells and slowly incrementing the concentration to a high concentration, and preventing the cells from being killed. Our starting concentration was 0.1 μM. The drug was added upon occurrence of cell proliferation. The drug addition gradient was an increment at a multiple of 1.25, and the final concentration was 2.0 μM. Stable drug-resistant cells were obtained after 4-6 weeks.
# (§4) Ruxolitinib and other compounds were all purchased from Selleck, dissolved in DMSO with a stock solution concentration of 10 mM, and cryopreserved at −80° C. The working solution was diluted to a specified multiple using a RPMI medium and then used for treating cells. Ruxolitinib was specifically ruxolitinib phosphate.
# (§5) To detect the antiproliferative effect of the inhibitor, the aforementioned cell lines were cultured at 3,000 cells/100 μL of the system per well, added with increasing concentrations of Ruxolitinib (concentration gradients of HEL cells: 0, 0.1, 1, 2.5, 5 μM; or 0, 0.1, 0.3, 1, 3, 10 μM), and added with DMSO to make up to the same amount. 4 parallel replicate groups were set up, and 3 blank wells (wells containing culture media without cells) were set up.
# (§6) A calculation formula of the cell proliferation rate was: cell proliferation rate=(Luminescence value of the group added with the drug-average Luminescence value of the blank wells)/(Luminescence value of the DMSO control group-average Luminescence value of the blank wells)×100%.
# A method for evaluating whether the model was successfully constructed was to compare the IC50s of resistant cells and naïve cells.
# (§7) In order to detect the effects of five compounds on the proliferation abilities of drug-resistant myeloproliferative neoplasm cells, the method was to treat HEL^RE with increasing concentrations of Ruxolitinib and the five compounds respectively, and to detect the proliferation of the cells by a CellTiter-Lumi™ luminescence method.
# [4] = system: neuroblastoma mouse model; conditions: cited from earlier work
# [5] = system: non-small cell lung cancer; conditions: non-small cell lung cancer patients, RP2D 275 mg per day; cited from earlier work
# neuroblastoma cells = conditions: cited from earlier work
# [6] = system: HEL cells (human erythroleukemia cell line); experiment: CellTiter-Lumi luminescence proliferation of naive HEL cells, 48 h; format: cell-based
# Procedure: as §3, §4, §5, §6
# as §7, with “the” for “five”, “the HEL naïve cell lines” for “HEL^RE”, “the” for “the five”
smiles,measurement,setting,value
COc1cc2ncnc(Oc3cccc(NC(=O)Nc4cc(C(C)(C)C(F)(F)F)on4)c3)c2cc1OC [Agerafenib],average apoptosis rate of HEL cells,[1]; 0.1 μM,4.41±0.630% and 4.41%
same,average apoptosis rate of HEL cells,[1]; 0.3 μM,4.98±1.09% and 4.98%
same,average apoptosis rate of HEL cells,[1]; 1 μM,3.42±0.140% and 3.42%
same,average apoptosis rate of HEL cells,[1]; 3 μM,5.27%
same,average apoptosis rate of HEL cells,[1]; 10 μM,5.43±0.720% and 5.43%
same,promotion of apoptosis of HEL cells (in words),[1]; 0.1-10 μM,could not promote apoptosis of the HEL cells
same,average apoptosis rate of HEL-RE cells,[2]; 0.1 μM,7.05±0.920% and 7.05%
same,average apoptosis rate of HEL-RE cells,[2]; 0.3 μM,5.33±0.430% and 5.33%
same,average apoptosis rate of HEL-RE cells,[2]; 1 μM,5.11±0.210% and 5.11%
same,average apoptosis rate of HEL-RE cells,[2]; 3 μM,7.37±0.220% and 7.37%
same,average apoptosis rate of HEL-RE cells,[2]; 10 μM,8.22±0.390% and 8.22%
same,promotion of apoptosis of HEL^RE cells (in words),[2]; 0.1-10 μM,could not promote apoptosis of the HEL^RE cells
same,inhibition of proliferation of HEL^RE cells (in words),[3]; 0.1-10 μM,"could inhibit the proliferation of the HEL^RE cells, and this effect was increased with the increase of the drug concentration"
same,activity at 0.1 µM,"[3]; Homo sapiens, 0.1 μM, 48 h, vs DMSO control, read-out: average proliferation rate of HEL^RE cells",4.26 ± 0.46%
same,activity at 0.3 µM,"[3]; Homo sapiens, 0.3 μM, 48 h, vs DMSO control, read-out: average proliferation rate of HEL^RE cells",2.77 ± 0.43%
same,activity at 1 µM,"[3]; Homo sapiens, 1 μM, 48 h, vs DMSO control, read-out: average proliferation rate of HEL^RE cells",2.75 ± 0.94%
same,activity at 3 µM,"[3]; Homo sapiens, 3 μM, 48 h, vs DMSO control, read-out: average proliferation rate of HEL^RE cells",2.21 ± 0.04%
same,activity at 10 µM,"[3]; Homo sapiens, 10 μM, 48 h, vs DMSO control, read-out: average proliferation rate of HEL^RE cells",1.86 ± 0.23%
same,tumor growth and survival,[4],able to inhibit tumor growth of and prolong the survival of mice significantly
same,anti-tumor activity,[5],good anti-tumor activity
same,proliferation and colony formation of neuroblastoma cells,neuroblastoma cells; in vitro,able to inhibit the proliferation and colony formation of neuroblastoma cells in vitro
same,combination with traditional chemotherapy drugs,neuroblastoma cells; with traditional chemotherapy drugs,had a synergistic effect with traditional chemotherapy drugs
same,inhibition of proliferation of HEL cells (in words),[6]; 0.1-10 μM,"can successfully inhibit the proliferation of the HEL cells; also recorded: could inhibit the proliferation of the HEL cells, and this effect was increased with the increase of the drug concentration"
same,activity at 0.1 µM,"[6]; Homo sapiens, 0.1 μM, 48 h, vs DMSO control, read-out: average proliferation rate of HEL cells",90.1 ± 3.01%
same,activity at 0.3 µM,"[6]; Homo sapiens, 0.3 μM, 48 h, vs DMSO control, read-out: average proliferation rate of HEL cells",93.8 ± 12.4%
same,activity at 1 µM,"[6]; Homo sapiens, 1 μM, 48 h, vs DMSO control, read-out: average proliferation rate of HEL cells",83.2 ± 4.45%
same,activity at 3 µM,"[6]; Homo sapiens, 3 μM, 48 h, vs DMSO control, read-out: average proliferation rate of HEL cells",70.3 ± 3.47%
same,activity at 10 µM,"[6]; Homo sapiens, 10 μM, 48 h, vs DMSO control, read-out: average proliferation rate of HEL cells",40.1 ± 8.26%
